Results reported in patent US12441710B2, “Substituted piperidino compounds and related methods of treatment” (Alkermes, Inc., priority 2020, dated 2025).

Key:
Type in all cases: in vitro ADME
MDR1 = assay: MDCK-MDR1 permeability assay; settings: dog, 3 μM test compound; for efflux ratio at 2 h, 3 μM: Papp (B→A) divided by Papp (A→B), read-out: Efflux ratio (ER); for Papp A→B at 2 h, 3 μM: apical to basolateral, 2 hours at 37 degrees C
Protocol: The bidirectional permeability (Apical to Basal and Basal to Apical directions) of test compounds in MDCK-MDR1 cells were evaluated using MDCK-MDR1 cells seeded in Solvo PreadyPort™ MDCK 96-well plate. Once the plate was received from ReadyCell (Barcelona, Spain), it was treated as per PreadyPort™ user's manual.
For the Apical to Basolateral (A→B) permeability, 80 μL of test compound (3 μM) co-dosed with LY (Lucifer Yellow) (100 μM) in HBSS (Hank's Balanced Salt Solution) assay buffer was added to the donor side (A) while 250 μL of HBSS buffer was added to the receiver side (B). For the Basolateral to Apical (B→A) permeability, 255 μL of test compound (3 μM) in HBSS assay buffer was added to the donor side (B) while 75 μL of HBSS buffer containing LY (100 μM) was added to the receiver side (A).
The plate was placed in an incubator set at 37 degrees C. After 10 minutes of pre-warming, 5 μL aliquot was taken from donor compartment and set aside as the dosing solution. The MDCK-MDR1 incubation plate was placed back into the incubator for 2 hours of incubation at 37 degrees C. After 2 hours of incubation, 25 μL and 5 μL aliquots were removed from the receiver and donor sides, respectively. To the 5 μL aliquots taken from the donor sides (before and after a 2-hour incubation) were diluted with 20 μL of the HBSS buffer. All samples were mixed with 150 μL with acetonitrile containing internal standard (IS) and 200 μL water, and analyzed by LC-MS/MS.
The apparent permeability (Papp) was calculated using the following formula: Papp=dQ/dt×1/A×C0 where: • dQ/dt: amount of translocated material over incubation time (nmol/s) • A: area of insert (0.14 cm^2 for PreadyPort™ MDR1-96) • C0: initial concentration of product applied in apical (A→B) or basal (B→A) compartment (nmol/mL).
The efflux ratio (ER) was measured by dividing the Papp (basolateral to apical direction) by Papp (apical to basolateral direction). It is a general measure of the involvement of active processes. An ER >2 is considered positive for active transport.
The data reported in Table 3 were obtained according to the MDCK-MDR1 permeability assay described above.

human hepatocytes = assay: Hepatocytes stability assay (human hepatocytes); settings: hepatic clearance divided by liver blood flow, fu assumed unity
Protocol: (§1) In vitro metabolic stability was assessed using cryopreserved hepatocytes from male Sprague Dawley rats and a pool of 50 mixed gender humans (BioIVT, Baltimore, MD). The incubation mixtures were prepared by mixing 250 μL of pre-warmed KHB (Krebs-Henseleit buffer) containing 2×10^6 cell/mL of hepatocytes with 250 μL of pre-warmed KHB buffer containing 2 μM of test compounds in a 48-well plate, giving a final concentration of 1 μM test compound (0.1% DMSO) and 1×10^6 cell/mL of hepatocytes. The reaction mixture was incubated at 37 degrees C. A 50 μL aliquot of incubation mixture was taken at time points (0, 15, 30, 60, 120 and 240 minutes) and transferred into a 96-well plate containing 300 μL ice-cold acetonitrile (containing 30 ng/mL of labetalol and 10 ng/mL of Naltrexone-d3 as internal standards) and immediately placed in ice to terminate the reaction. Samples were centrifuged, and supernatants were transferred into 96-well plates for liquid chromatography with tandem mass spectrometry (LC-MS/MS) analysis to monitor the depletion of the test compound. Data was calculated as percent remaining by assuming zero-minute time point peak area ratio (analyte/IS) as 100% and dividing remaining time point peak area ratios by zero-minute time point peak area ratio. Data were fitted to a first-order decay model to determine half-life. From a plot of log (ln) peak area against time, the slope of the line was determined. Subsequently, half-life (T1/2) and intrinsic clearance (CLint) were calculated using the equations below: • Elimination rate constant (k)=(−slope) • Half-life (T1/2) min=0.693/k • Intrinsic Clearance (CLint) (mL/min/million cells)=(V×0.693)/T1/2 • V=incubation volume mL/number of cells The in vitro T1/2 was converted to in vitro intrinsic clearance (CLint,hep) in units of mL/min/kg using the formula shown below: The in vitro intrinsic clearance (CLint,hep) was scaled to in vivo hepatic clearance (CL,hep) using the following equation which was adapted from a well-stirred model. [formula] where Q is the liver blood flow and fu is the fraction unbound (assumed to be unity in this case). All parameters used in the calculation are shown below (Table 4). The extraction ratio (ER) was calculated by dividing the hepatic clearance of a compound to the liver blood flow. The data reported in Table 5 were obtained according to the human hepatocytes stability assay described above.

[1] = Hepatocytes stability assay (human hepatocytes); settings: both sexes, cryopreserved hepatocytes, 1 μM test compound, 1×10^6 cell/mL, read-out: CLint (μL/min/million cells)
Protocol: as §1

Cc1cccc(C2CCC(OCC3CN(c4ccccn4)CC[C@@H]3NS(C)(=O)=O)CC2)c1C (some centres unmarked) [Compound 17]
efflux ratio at 2 h, 3 μM (MDR1): > 6.9
Papp A→B at 2 h, 3 μM (MDR1): < 0.28 ×10⁻⁶ cm/s
Extraction Ratio (ER) (human hepatocytes): 0.83
hepatocyte CLint at 1 μM [1]: 32 µL/min/1e6 cells

Cc1cc(C)cc(C2CCC(OCC3CN(c4ccccn4)CC[C@@H]3NS(C)(=O)=O)CC2)c1 (some centres unmarked) [Compound 18]
efflux ratio at 2 h, 3 μM (MDR1): > 2.6
Papp A→B at 2 h, 3 μM (MDR1): < 1.8 ×10⁻⁶ cm/s
Extraction Ratio (ER) (human hepatocytes): 0.84
hepatocyte CLint at 1 μM [1]: 36 µL/min/1e6 cells

CS(=O)(=O)N[C@H]1CCN(c2ncccn2)CC1COC1CCC(c2ccccc2)CC1 (some centres unmarked) [Compound 19]
efflux ratio at 2 h, 3 μM (MDR1): 14
Papp A→B at 2 h, 3 μM (MDR1): 1.2 ×10⁻⁶ cm/s
Extraction Ratio (ER) (human hepatocytes): 0.93
hepatocyte CLint at 1 μM [1]: 93 µL/min/1e6 cells

CS(=O)(=O)N[C@H]1CCN(c2ccncn2)CC1COC1CCC(c2ccccc2)CC1 (some centres unmarked) [Compound 20]
efflux ratio at 2 h, 3 μM (MDR1): 17
Papp A→B at 2 h, 3 μM (MDR1): 1.1 ×10⁻⁶ cm/s
Extraction Ratio (ER) (human hepatocytes): 0.90
hepatocyte CLint at 1 μM [1]: 60 µL/min/1e6 cells

CS(=O)(=O)N[C@H]1CCN(c2cnccn2)CC1COC1CCC(c2ccccc2)CC1 (some centres unmarked) [Compound 21]
efflux ratio at 2 h, 3 μM (MDR1): 35
Papp A→B at 2 h, 3 μM (MDR1): 0.69 ×10⁻⁶ cm/s
Extraction Ratio (ER) (human hepatocytes): 0.94
hepatocyte CLint at 1 μM [1]: 101 µL/min/1e6 cells

CS(=O)(=O)N[C@H]1CCN(c2cccnn2)CC1COC1CCC(c2ccccc2)CC1 (some centres unmarked) [Compound 22]
efflux ratio at 2 h, 3 μM (MDR1): 23
Papp A→B at 2 h, 3 μM (MDR1): 1.3 ×10⁻⁶ cm/s
Extraction Ratio (ER) (human hepatocytes): 0.89
hepatocyte CLint at 1 μM [1]: 56 µL/min/1e6 cells

CS(=O)(=O)N[C@H]1CCN(c2cccc(F)n2)CC1COC1CCC(c2ccccc2)CC1 (some centres unmarked) [Compound 23]
efflux ratio at 2 h, 3 μM (MDR1): > 5.4
Papp A→B at 2 h, 3 μM (MDR1): < 2 ×10⁻⁶ cm/s
Extraction Ratio (ER) (human hepatocytes): 0.79
hepatocyte CLint at 1 μM [1]: 25 µL/min/1e6 cells

CS(=O)(=O)N[C@H]1CCN(c2ccc(F)cn2)CC1COC1CCC(c2ccccc2)CC1 (some centres unmarked) [Compound 24]
efflux ratio at 2 h, 3 μM (MDR1): 30
Papp A→B at 2 h, 3 μM (MDR1): 0.28 ×10⁻⁶ cm/s
Extraction Ratio (ER) (human hepatocytes): 0.86
hepatocyte CLint at 1 μM [1]: 42 µL/min/1e6 cells

CS(=O)(=O)N[C@H]1CCN(c2cc(F)ccn2)CC1COC1CCC(c2ccccc2)CC1 (some centres unmarked) [Compound 25]
efflux ratio at 2 h, 3 μM (MDR1): > 58
Papp A→B at 2 h, 3 μM (MDR1): < 0.41 ×10⁻⁶ cm/s
Extraction Ratio (ER) (human hepatocytes): 0.92
hepatocyte CLint at 1 μM [1]: 73 µL/min/1e6 cells

CS(=O)(=O)N[C@H]1CCN(c2ncccc2F)CC1COC1CCC(c2ccccc2)CC1 (some centres unmarked) [Compound 26]
efflux ratio at 2 h, 3 μM (MDR1): 37
Papp A→B at 2 h, 3 μM (MDR1): 0.31 ×10⁻⁶ cm/s
Extraction Ratio (ER) (human hepatocytes): 0.89
hepatocyte CLint at 1 μM [1]: 55 µL/min/1e6 cells

CS(=O)(=O)N[C@H]1CCN(c2ncccc2O)CC1COC1CCC(c2ccccc2)CC1 (some centres unmarked) [Compound 27]
efflux ratio at 2 h, 3 μM (MDR1): 3
Papp A→B at 2 h, 3 μM (MDR1): 2.7 ×10⁻⁶ cm/s
Extraction Ratio (ER) (human hepatocytes): 0.92
hepatocyte CLint at 1 μM [1]: 75 µL/min/1e6 cells

CS(=O)(=O)N[C@H]1CCN(c2ncccc2C(F)(F)F)CC1COC1CCC(c2ccccc2)CC1 (some centres unmarked) [Compound 28]
efflux ratio at 2 h, 3 μM (MDR1): > 3.4
Papp A→B at 2 h, 3 μM (MDR1): < 1.2 ×10⁻⁶ cm/s
Extraction Ratio (ER) (human hepatocytes): 0.96
hepatocyte CLint at 1 μM [1]: 154 µL/min/1e6 cells

C[C@@]1(COC2CCC(c3ccccc3)CC2)CN(c2ccccn2)CC[C@@H]1NS(C)(=O)=O (some centres unmarked) [Compound 29]
efflux ratio at 2 h, 3 μM (MDR1): > 17
Papp A→B at 2 h, 3 μM (MDR1): < 0.42 ×10⁻⁶ cm/s
Extraction Ratio (ER) (human hepatocytes): 0.82
hepatocyte CLint at 1 μM [1]: 30 µL/min/1e6 cells

CS(=O)(=O)N[C@H]1CCN(c2ccccn2)CC1COC1CCC(c2ccccc2O)CC1 (some centres unmarked) [Compound 30]
efflux ratio at 2 h, 3 μM (MDR1): 28
Papp A→B at 2 h, 3 μM (MDR1): 0.7 ×10⁻⁶ cm/s
Extraction Ratio (ER) (human hepatocytes): 0.87
hepatocyte CLint at 1 μM [1]: 45 µL/min/1e6 cells

CS(=O)(=O)N[C@H]1CCN(c2ccccn2)CC1COC1CCC(c2cccc(O)c2)CC1 (some centres unmarked) [Compound 31]
efflux ratio at 2 h, 3 μM (MDR1): 18
Papp A→B at 2 h, 3 μM (MDR1): 1 ×10⁻⁶ cm/s
Extraction Ratio (ER) (human hepatocytes): 0.92
hepatocyte CLint at 1 μM [1]: 81 µL/min/1e6 cells

CS(=O)(=O)N[C@H]1CCN(c2ccccn2)CC1COC1CCC(c2ccc(O)cc2)CC1 (some centres unmarked) [Compound 32]
efflux ratio at 2 h, 3 μM (MDR1): 34
Papp A→B at 2 h, 3 μM (MDR1): 0.41 ×10⁻⁶ cm/s
Extraction Ratio (ER) (human hepatocytes): 0.94
hepatocyte CLint at 1 μM [1]: 110 µL/min/1e6 cells

CS(=O)(=O)N[C@H]1CCN(c2ccccn2)CC1COC1CCC(c2cccc(C(F)(F)F)c2)CC1 (some centres unmarked) [Compound 33]
efflux ratio at 2 h, 3 μM (MDR1): 15
Papp A→B at 2 h, 3 μM (MDR1): 0.07 ×10⁻⁶ cm/s
Extraction Ratio (ER) (human hepatocytes): 0.92
hepatocyte CLint at 1 μM [1]: 79 µL/min/1e6 cells

CS(=O)(=O)N[C@H]1CCN(c2ccccn2)CC1COC1CCC(c2cccc(C#N)c2)CC1 (some centres unmarked) [Compound 35]
efflux ratio at 2 h, 3 μM (MDR1): 12
Papp A→B at 2 h, 3 μM (MDR1): 1.3 ×10⁻⁶ cm/s
Extraction Ratio (ER) (human hepatocytes): 0.94
hepatocyte CLint at 1 μM [1]: 102 µL/min/1e6 cells

CS(=O)(=O)N[C@H]1CCN(Cc2ccccc2)CC1COC1CCC(c2ccccc2)CC1 (some centres unmarked) [Compound 36]
efflux ratio at 2 h, 3 μM (MDR1): > 12
Papp A→B at 2 h, 3 μM (MDR1): < 0.21 ×10⁻⁶ cm/s
Extraction Ratio (ER) (human hepatocytes): 0.90
hepatocyte CLint at 1 μM [1]: 58 µL/min/1e6 cells

CS(=O)(=O)N[C@H]1CCN(Cc2ccccn2)CC1COC1CCC(c2ccccc2)CC1 (some centres unmarked) [Compound 39]
efflux ratio at 2 h, 3 μM (MDR1): 15
Papp A→B at 2 h, 3 μM (MDR1): 1.4 ×10⁻⁶ cm/s
Extraction Ratio (ER) (human hepatocytes): 0.90
hepatocyte CLint at 1 μM [1]: 59 µL/min/1e6 cells

CS(=O)(=O)N[C@H]1CCN(Cc2cccnc2)CC1COC1CCC(c2ccccc2)CC1 (some centres unmarked) [Compound 40]
efflux ratio at 2 h, 3 μM (MDR1): 8.2
Papp A→B at 2 h, 3 μM (MDR1): 1.3 ×10⁻⁶ cm/s
Extraction Ratio (ER) (human hepatocytes): 0.93
hepatocyte CLint at 1 μM [1]: 86 µL/min/1e6 cells

CS(=O)(=O)N[C@H]1CCN(Cc2ccncc2)CC1COC1CCC(c2ccccc2)CC1 (some centres unmarked) [Compound 41]
efflux ratio at 2 h, 3 μM (MDR1): 16
Papp A→B at 2 h, 3 μM (MDR1): 1.7 ×10⁻⁶ cm/s
Extraction Ratio (ER) (human hepatocytes): 0.94
hepatocyte CLint at 1 μM [1]: 107 µL/min/1e6 cells

CS(=O)(=O)N[C@H]1CCN(c2cccc3ccnn23)CC1COC1CCC(c2ccccc2)CC1 (some centres unmarked) [Compound 42]
efflux ratio at 2 h, 3 μM (MDR1): 2.9
Papp A→B at 2 h, 3 μM (MDR1): 0.86 ×10⁻⁶ cm/s
Extraction Ratio (ER) (human hepatocytes): 0.94
hepatocyte CLint at 1 μM [1]: 100 µL/min/1e6 cells

CS(=O)(=O)N[C@H]1CCN(c2cccc3ncnn23)CC1COC1CCC(c2ccccc2)CC1 (some centres unmarked) [Compound 43]
efflux ratio at 2 h, 3 μM (MDR1): 8.8
Papp A→B at 2 h, 3 μM (MDR1): 2.4 ×10⁻⁶ cm/s
Extraction Ratio (ER) (human hepatocytes): 0.94
hepatocyte CLint at 1 μM [1]: 102 µL/min/1e6 cells

CS(=O)(=O)N[C@H]1CCN(c2nccc3ncnn23)CC1COC1CCC(c2ccccc2)CC1 (some centres unmarked) [Compound 44]
efflux ratio at 2 h, 3 μM (MDR1): 6.4
Papp A→B at 2 h, 3 μM (MDR1): 3 ×10⁻⁶ cm/s
Extraction Ratio (ER) (human hepatocytes): 0.95
hepatocyte CLint at 1 μM [1]: 133 µL/min/1e6 cells

CS(=O)(=O)N[C@H]1CCN(c2nccc3ocnc23)CC1COC1CCC(c2ccccc2)CC1 (some centres unmarked) [Compound 45]
efflux ratio at 2 h, 3 μM (MDR1): 2.2
Papp A→B at 2 h, 3 μM (MDR1): 1.9 ×10⁻⁶ cm/s
Extraction Ratio (ER) (human hepatocytes): 0.94
hepatocyte CLint at 1 μM [1]: 103 µL/min/1e6 cells
